pEC50: −log10 of the molar value. Entries after “also recorded” stand apart in the source; their conditions may differ. Read-outs that look alike come from different tables or passages of the source.
Legend:
[1] = Human plasma protein binding; assay type: in vitro ADME; conditions: data not shown
Adenylate kinase = assay: AK activity assay kit; assay type: biochemical
[2] = molecular target: T1, recombinant human AMPK α2β2γ2 (Homo sapiens, UniProt Q9UGJ0); assay: In vitro AMP kinase assay (pACC ELISA), α2β2γ2; assay type: biochemical
T1 construct: purchased SignalChem; host or cells: baculovirus expression
From the text: (§1) Having observed the effect of Activator-3 on the activation of AMPK in cell based assays, we next examined whether Activator-3 could activate AMPK directly or not. […] The activity of recombinant human AMPK (α1β1γ1, α2β1γ1, α2β2γ2 and α2β2γ3) in the presence of vehicle was considered as 100%. The EC50 of Activator-3 for the activation of α1β1γ1, α2β1γ1 and α2β2γ2 isozymes were similar. However, the activity of Activator-3 against α2β2γ3 was marginally higher (Fig. 1C).
(§2) A high binding Enzyme Immuno Assay (EIA) 96-well plate (Sigma: Cat# CLS3590) was coated with Acetyl CoA Carboxylase 2 (ACC: 175–271 amino acids) peptide, a direct substrate for AMPK, 100 ng per well (1:1000 ratio, Cat# 12–491, Upstate biotechnology) and incubated overnight at 25 °C. Reaction mixture was incubated at 30 °C for 2 h and reaction was stopped by washing the plate with 0.05% Tween 20 followed by incubation with pACC primary antibody and rabbit secondary antibody as described in cell based ELISA section. Assay buffer is composed of 10 mM DTT, 100 mM magnesium acetate, 50 μM ATP and 10 mM HEPES.

PFK1 = assay: PFK activity assay kit; assay type: biochemical; conditions: Activator-3 at 10 µM (≤10 µM)
LKB1 = molecular target: T2, LKB1 (Homo sapiens, UniProt Q15831); assay: Cell-free kinase assay (Kinexus); assay type: biochemical
T2 construct: purchased Kinexus, Canada (screening service)
Method: To determine whether Activator-3 affects the activity of any other protein kinases, we screened it in cell-free assays against a panel of 100 protein kinases (Kinexus, Canada). […] Three kinases, DDR1 (−79%), SRC (−71%) and ALK5 (−61%) were inhibited by Activator-3 by more than 50% at 10 µM.
Table S2: Activity change observed in the LKB1 Kinase tested against Activator-3 at 200μM
Protein Kinase (CPM) (CPM) % Change
Table S3: Evaluating the goodness of the representative structure obtained from MD
simulations using PROCHECK server.
Ramchandran Map No. of resides Percentage
Most favored regions 889 85.8%
Additional allowed regions 128 12.4%
Generously allowed regions 13 1.3%
Disallowed regions 6 0.6%
Non-glycine and non-proline residues 1036 100.0%
Table S4: Heterotrimeric human AMPK crystal structures available in PDB.
PDBID Isoform Organism Inhibitor and/or activator Modifications References
Staurosporine, 108-SEP Lagendorf et al. 20161
5EZV α2β1γ1 Homo sapiens C2Z, C1V, Staurosporine 172-TPO […]

[3] = test system: human recombinant AMPK isozymes; assay: In vitro AMP kinase assays, isozymes taken together; assay type: biochemical
Method: as §2

AMPK = assay: Cell based ELISA (pAMPK/pACC) in primary rat hepatocytes
Method: Primary rat hepatocytes were isolated by collagenase (type4, Invitrogen: Cat# 17104-019) digestion as described previously. Digested cells were suspended in DMEM supplemented with 10% FBS. Cells were seeded into 96-well plate (20,000 cells per well) pre-coated with collagen (2 mg/ml). As the cells were metabolically active, medium was changed after cells have attached and allowed to incubate overnight before performing cell based assay.
Approximately 40,000 cells per well were seeded into a 96 well plate (Biofil, cat# TCP011096) and incubated overnight at 37 °C and 5% CO2. After the seeded cells reached 80% confluence, cells were treated with Activator-3 with different working concentrations and 500 μM AICAR (Caymen chemicals, cat# 10010241-10) and incubated for 30 min to 2 h (depending upon the primary antibody used) at 37 °C and 5% CO2. Medium was aspirated and fixed with 4% of formaldehyde solution (diluted in 1X PBS) incubated for 1 h at 4 °C on shaker. Cells were washed with tween 20 (diluted in 1X PBS) on shaker for 5 minutes at room temperature (3 times). […] To quantify the bound primary antibody, cells were probed with a HRP conjugated secondary anti-rabbit antibody (1:2000 dilution, Bio-Rad; Cat# 170-6515) diluted in 1X PBST and incubated 2 h at RT on rocker. […] This reaction is stopped by adding 2 N H2SO4 and plate was immediately read at 450 nm using UV–Vis Spectrophotometer.

[4] = Pharmacokinetic study in male rats; assay type: in vivo, rat
Method: Male SD rats were orally administered 30 mg/Kg of Activator-3. Blood and brain samples were collected at specified time points and were analyzed for Activator-3 using a LC-MS/MS method[64]–[66]. […] The human plasma protein binding was ~80% (data not shown). […] Systemic exposure of Activator-3 was very high in plasma compared to brain.
Male SD rats were orally administered with 30 mg/Kg of Activator-3. Blood and brain samples were collected at specified time points and were analyzed for Activator-3 using optimized LC-MS/MS method[64]–[66].

[5] = molecular target: T3, recombinant human AMPK α1β1γ1 (Homo sapiens, UniProt P54619); assay: In vitro AMP kinase assay (pACC ELISA), α1β1γ1; assay type: biochemical
T3 construct: purchased SignalChem P47-10H-05/P48-10H-05 (for all four isozymes together); host or cells: baculovirus expression
From the text: as §1, §2

[6] = Activator-3 1 nM to 10 μM with 100 µM AMP

T3 sequence (P54619 whole entry): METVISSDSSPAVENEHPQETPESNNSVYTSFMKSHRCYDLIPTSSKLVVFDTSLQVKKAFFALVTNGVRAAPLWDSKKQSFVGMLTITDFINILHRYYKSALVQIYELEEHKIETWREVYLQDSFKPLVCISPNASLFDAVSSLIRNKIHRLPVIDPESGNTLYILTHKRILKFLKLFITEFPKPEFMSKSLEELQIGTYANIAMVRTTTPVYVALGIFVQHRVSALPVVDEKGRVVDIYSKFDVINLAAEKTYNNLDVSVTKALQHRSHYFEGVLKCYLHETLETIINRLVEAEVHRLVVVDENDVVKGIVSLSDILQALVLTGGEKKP
T3 sequence (Q13131 whole entry partner): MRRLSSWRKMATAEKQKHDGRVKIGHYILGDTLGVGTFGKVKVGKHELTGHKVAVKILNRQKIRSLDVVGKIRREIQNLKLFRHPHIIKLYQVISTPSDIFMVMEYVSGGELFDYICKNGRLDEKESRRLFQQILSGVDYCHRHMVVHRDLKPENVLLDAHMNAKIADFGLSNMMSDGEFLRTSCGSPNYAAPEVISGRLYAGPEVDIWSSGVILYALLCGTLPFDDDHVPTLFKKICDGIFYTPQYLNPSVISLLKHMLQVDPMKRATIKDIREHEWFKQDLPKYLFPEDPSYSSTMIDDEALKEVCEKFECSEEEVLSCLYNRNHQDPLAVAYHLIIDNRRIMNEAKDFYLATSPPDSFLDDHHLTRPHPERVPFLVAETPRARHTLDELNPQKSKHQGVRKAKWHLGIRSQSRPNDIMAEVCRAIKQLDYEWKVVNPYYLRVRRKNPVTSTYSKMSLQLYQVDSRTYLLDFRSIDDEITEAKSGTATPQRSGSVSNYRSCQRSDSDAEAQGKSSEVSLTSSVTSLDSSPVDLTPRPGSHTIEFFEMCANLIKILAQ
T3 sequence (Q9Y478 whole entry partner): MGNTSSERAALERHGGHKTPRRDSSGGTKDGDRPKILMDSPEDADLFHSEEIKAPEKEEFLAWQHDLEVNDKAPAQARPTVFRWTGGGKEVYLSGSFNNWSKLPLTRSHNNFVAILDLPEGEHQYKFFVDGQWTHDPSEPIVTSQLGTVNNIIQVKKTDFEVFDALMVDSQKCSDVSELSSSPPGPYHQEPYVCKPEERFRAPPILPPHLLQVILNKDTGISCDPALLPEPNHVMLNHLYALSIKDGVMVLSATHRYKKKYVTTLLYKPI
T1 sequence (Q9UGJ0 whole entry): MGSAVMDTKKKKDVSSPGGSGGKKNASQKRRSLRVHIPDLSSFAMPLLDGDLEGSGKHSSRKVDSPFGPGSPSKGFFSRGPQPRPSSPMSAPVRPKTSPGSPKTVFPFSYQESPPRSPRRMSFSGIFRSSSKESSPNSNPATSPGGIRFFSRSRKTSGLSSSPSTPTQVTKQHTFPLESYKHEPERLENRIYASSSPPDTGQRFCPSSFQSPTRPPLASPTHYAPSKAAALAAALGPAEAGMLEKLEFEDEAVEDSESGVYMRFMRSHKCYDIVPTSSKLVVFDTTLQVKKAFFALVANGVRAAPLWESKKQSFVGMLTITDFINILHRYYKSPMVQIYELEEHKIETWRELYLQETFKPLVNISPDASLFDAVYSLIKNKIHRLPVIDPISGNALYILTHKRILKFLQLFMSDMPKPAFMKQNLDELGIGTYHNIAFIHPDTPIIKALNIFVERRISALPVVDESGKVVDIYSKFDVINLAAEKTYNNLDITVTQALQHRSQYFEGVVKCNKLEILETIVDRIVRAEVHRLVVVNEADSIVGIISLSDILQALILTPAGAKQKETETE
T1 sequence (P54646 whole entry partner): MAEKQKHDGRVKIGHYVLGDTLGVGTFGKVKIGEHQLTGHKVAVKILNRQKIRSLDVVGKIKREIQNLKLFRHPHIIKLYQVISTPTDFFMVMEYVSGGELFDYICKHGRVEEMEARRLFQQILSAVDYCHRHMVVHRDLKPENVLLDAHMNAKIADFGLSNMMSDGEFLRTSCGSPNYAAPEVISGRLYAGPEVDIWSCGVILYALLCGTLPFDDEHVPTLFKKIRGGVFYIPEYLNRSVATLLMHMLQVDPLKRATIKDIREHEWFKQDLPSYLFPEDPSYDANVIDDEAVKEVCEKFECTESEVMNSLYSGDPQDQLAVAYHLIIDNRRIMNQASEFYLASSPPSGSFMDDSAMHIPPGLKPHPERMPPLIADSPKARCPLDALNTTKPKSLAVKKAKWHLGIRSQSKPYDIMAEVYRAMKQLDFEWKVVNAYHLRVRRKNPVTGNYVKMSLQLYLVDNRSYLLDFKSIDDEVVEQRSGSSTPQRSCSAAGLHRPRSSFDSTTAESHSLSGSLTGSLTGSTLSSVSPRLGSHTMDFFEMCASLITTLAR
T1 sequence (O43741 whole entry partner): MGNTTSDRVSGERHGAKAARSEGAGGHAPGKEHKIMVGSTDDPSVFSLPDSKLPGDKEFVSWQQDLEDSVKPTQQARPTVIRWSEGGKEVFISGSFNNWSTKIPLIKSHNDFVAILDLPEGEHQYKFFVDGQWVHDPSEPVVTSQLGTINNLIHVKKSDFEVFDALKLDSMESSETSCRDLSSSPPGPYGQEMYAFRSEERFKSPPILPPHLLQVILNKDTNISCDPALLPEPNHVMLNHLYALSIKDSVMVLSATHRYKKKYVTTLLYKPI
T2 sequence (Q15831 whole entry, species assumed): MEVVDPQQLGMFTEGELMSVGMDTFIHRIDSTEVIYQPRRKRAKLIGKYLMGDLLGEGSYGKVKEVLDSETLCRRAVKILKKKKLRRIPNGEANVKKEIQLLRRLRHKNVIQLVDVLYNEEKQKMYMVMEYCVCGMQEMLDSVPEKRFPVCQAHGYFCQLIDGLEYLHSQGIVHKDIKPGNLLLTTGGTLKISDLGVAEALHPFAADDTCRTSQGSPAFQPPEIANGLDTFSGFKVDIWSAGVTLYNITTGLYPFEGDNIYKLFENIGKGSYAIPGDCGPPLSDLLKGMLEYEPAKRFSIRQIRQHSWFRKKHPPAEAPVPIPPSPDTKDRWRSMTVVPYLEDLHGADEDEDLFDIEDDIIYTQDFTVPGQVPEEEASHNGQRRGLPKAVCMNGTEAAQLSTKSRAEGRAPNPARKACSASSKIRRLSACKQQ
T2 sequence (Q7RTN6 whole entry partner, species assumed): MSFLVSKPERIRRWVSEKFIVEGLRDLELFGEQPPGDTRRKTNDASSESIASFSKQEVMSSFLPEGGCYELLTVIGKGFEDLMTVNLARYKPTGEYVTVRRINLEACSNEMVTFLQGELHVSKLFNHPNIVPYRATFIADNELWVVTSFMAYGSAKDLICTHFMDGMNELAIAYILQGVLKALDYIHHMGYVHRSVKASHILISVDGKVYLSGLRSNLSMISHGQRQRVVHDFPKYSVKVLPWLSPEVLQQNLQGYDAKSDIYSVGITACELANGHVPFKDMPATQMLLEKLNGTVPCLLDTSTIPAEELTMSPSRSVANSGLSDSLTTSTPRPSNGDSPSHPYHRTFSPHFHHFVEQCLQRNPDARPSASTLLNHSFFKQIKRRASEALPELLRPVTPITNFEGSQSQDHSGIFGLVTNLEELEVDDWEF
T2 sequence (Q9Y376 whole entry partner, species assumed): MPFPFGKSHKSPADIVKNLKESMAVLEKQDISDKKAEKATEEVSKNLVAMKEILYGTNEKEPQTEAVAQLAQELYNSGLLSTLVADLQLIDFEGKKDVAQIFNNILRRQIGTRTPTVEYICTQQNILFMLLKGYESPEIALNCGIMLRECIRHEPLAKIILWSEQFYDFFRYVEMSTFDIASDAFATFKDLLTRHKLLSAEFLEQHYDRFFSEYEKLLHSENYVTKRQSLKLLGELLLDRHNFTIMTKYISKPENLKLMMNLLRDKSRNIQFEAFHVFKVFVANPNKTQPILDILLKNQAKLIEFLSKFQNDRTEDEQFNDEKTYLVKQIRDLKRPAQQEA

fraction unbound [1]: ~0.2
effect on Adenylate kinase activity (Adenylate kinase; 1 µM): minimally affected
effect on Adenylate kinase activity (Adenylate kinase; ≤10 µM): unaffected
change of AMPK activity stimulated by 100 µM AMP [2, 6]: minimal decrease
pEC50 ([2]; read-out: EC50 allosteric activation hα2β2γ2): ~7.59
effect on kinase activity (LKB1; 10 µM): not affected
% Change (LKB1; 200μM, Control 10984 CPM, Test 11638 CPM): 5%
activation of AMPK [3]: 30–40%
t1/2 ([4]; male SD rats, oral 30 mg/Kg, plasma, 30 mg/kg): ~ 4 h
half-life ([4]; male, SD, rat, plasma, po, 30 mg/kg, male SD rats, oral 30 mg/Kg): 4.11 h
bioavailability ([4]; rat, oral): good bioavailability
Cmax ([4]; rat, plasma, male SD rats, oral 30 mg/Kg, read-out: Cmax in plasma): ~109 µg/mL
Cmax ([4]; rat, plasma, male SD rats, oral 30 mg/Kg, read-out: Cmax in plasma, molar): ~360 µM
AUC ([4]; rat, plasma, male SD rats, oral 30 mg/Kg, read-out: Systemic exposure in plasma (AUC)): ~978 µg·h/mL
AUC ([4]; rat, plasma, male SD rats, oral 30 mg/Kg, read-out: Systemic exposure in plasma (AUC), molar): ~3300 µM·h
cooperativity of AMPK activation at high ATP ([5]; ATP 2 mM vs 20 µM, Activator-3 0–1 µM): does not exhibit co-operative binding
reduction of AMPK activity stimulated by 100 µM AMP [5, 6]: ~ 50%
pEC50 ([5]; read-out: EC50 allosteric activation hα1β1γ1): ~7.42
SMILES: O=C(O)Cc1csc(Nc2ccc(C(F)(F)F)cc2)n1 [Activator-3, 2-[2-(4-(trifluoromethyl)phenylamino)thiazol-4-yl]acetic acid]
effect on PFK1 activity (PFK1): unaffected; also recorded: no effect
pEC50 (AMPK): ~7.55
level in brain / brain penetration ([4]; male SD rats, oral 30 mg/Kg, 30 mg/kg): No significant level; also recorded: no brain penetration

— paper PMC6018554, “2-[2-(4-(trifluoromethyl)phenylamino)thiazol-4-yl]acetic acid (Activator-3) is a potent activator of AMPK” (Scientific Reports, 2018)
